Reference: the supplement of paper PMC10307832

How the values were obtained:
Assay in all cases: relative viability (nuclei count vs DMSO), 5 days (fraction); higher = more cells survive
[1] = compound: CC(C)(C)c1cc(NC(=O)Nc2ccc(-c3cn4c(n3)sc3cc(OCCN5CCOCC5)ccc34)cc2)no1 [Quizartinib]
Procedure, shortened: (§1)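 Five library-drug doses spaced by √10 were pinned onto vehicle-anchored 1536-well plates of lung cancer cell lines that had been kept overnight at 37 °C. Cells went 5 days without medium change, then were fixed, permeabilised and Hoechst-stained together, imaged at 4× and counted by MetaXpress. Viability is the ratio of treated-well to vehicle-well nuclei, taken as a median over plates. Plates required control CV below 25% and at least one doubling.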

[2] = compound: COCC[n+]1c2c(n(Cc3cnccn3)c1C)C(=O)c1ccccc1C2=O [YM155]
Procedure, shortened: as §1

[3] = compound: CC(C)(C)c1cc(NC(=O)Nc2ccc(-c3cn4c(n3)sc3cc(OCCN5CCOCC5)ccc34)cc2)no1 [Quizartinib] + CC(=O)Nc1cccc(-n2c(=O)n(C3CC3)c(=O)c3c(Nc4ccc(I)cc4F)n(C)c(=O)c(C)c32)c1 [Trametinib] (partner 0.02 µM)
Procedure, shortened: (§2)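 After 5 days of treatment, lung cancer cells in 1536-well plates were fixed and stained in a single step (final 0.05% Triton X-100, 1% formaldehyde, 1 ug/ml Hoechst) and their nuclei counted on 4× images. Treatment had been applied by pin tool the day after seeding as one drug alone or as a fixed anchor-drug dose with five library-drug doses (not always all listed) in √10 steps. Relative viability is the nuclei count of treated wells divided by that of vehicle wells, and values are medians of duplicate plates.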

[4] = compound: COCC[n+]1c2c(n(Cc3cnccn3)c1C)C(=O)c1ccccc1C2=O [YM155] + CC1(C)CCC(c2ccc(Cl)cc2)=C(CN2CCN(c3ccc(C(=O)NS(=O)(=O)c4ccc(N[C@H](CCN5CCOCC5)CSc5ccccc5)c(S(=O)(=O)C(F)(F)F)c4)cc3)CC2)C1 [Navitoclax] (partner 0.5 µM)
Procedure, shortened: as §2

Row | Cell Line | relative viability ([1]; 0.001 µM) | relative viability ([1]; 0.003162 µM) | relative viability ([1]; 0.01 µM) | relative viability ([1]; 0.03162 µM) | relative viability ([1]; 0.1 µM) | relative viability ([2]; 0.002 µM) | relative viability ([2]; 0.006325 µM) | relative viability ([2]; 0.02 µM) | relative viability ([2]; 0.06325 µM) | relative viability ([3]; first compound 0.001 µM) | relative viability ([3]; first compound 0.003162 µM) | relative viability ([3]; first compound 0.01 µM) | relative viability ([3]; first compound 0.03162 µM) | relative viability ([3]; first compound 0.1 µM) | relative viability ([4]; first compound 0.002 µM) | relative viability ([4]; first compound 0.006325 µM) | relative viability ([4]; first compound 0.02 µM) | relative viability ([4]; first compound 0.06325 µM)
1 | 201T | 1.01 | 1.01 | 0.987 | 0.98 | 0.934 | 0.922 | 1.01 | 1.01 | 0.998 | 0.595 | 0.696 | 0.755 | 0.708 | 0.742 | 1.26 | 1.18 | 1.17 | 1.23
2 | A549 | 0.751 | 0.976 | 0.928 | 0.884 | 1.05 | 1.02 | 0.984 | 0.995 | 0.906 |  |  |  |  |  | 1.28 | 1.24 | 1.11 | 0.14
3 | A-427 | 0.771 | 0.982 | 0.979 | 0.922 | 1.05 | 0.883 | 0.951 | 1.03 | 0.941 | 0.517 | 0.691 | 0.675 | 0.591 | 0.704 | 0.984 | 0.88 | 0.91 | 0.997
4 | ABC-1 | 0.771 | 0.825 | 0.817 | 0.673 | 0.913 | 0.707 | 0.61 | 0.396 | 0.219 |  |  |  |  |  |  |  |  | 
5 | BEN | 0.906 | 0.982 | 0.94 | 0.813 | 0.972 | 0.899 | 0.972 | 1.09 | 1.11 | 0.998 | 1.02 | 1.19 | 0.925 | 1.22 | 0.0838 | 0.0769 | 0.0788 | 0.0609
6 | CAL-12T | 0.92 | 1.06 | 1.05 | 0.821 | 1.11 | 0.928 | 0.998 | 1.08 | 0.719 | 0.371 | 0.371 | 0.345 | 0.271 | 0.352 | 1.22 | 1.16 | 1.16 | 0.299
7 | COR-L23 | 0.952 | 0.939 | 0.992 | 0.979 | 1.05 | 0.988 | 0.912 | 0.689 | 0.281 | 0.518 | 0.552 | 0.595 | 0.479 | 0.543 | 0.905 | 0.877 | 0.505 | 0.123
8 | Calu-6 | 0.902 | 0.982 | 1.05 | 0.879 | 1.02 | 0.992 | 0.996 | 0.557 | 0.186 |  |  |  |  |  | 0.849 | 0.589 | 0.191 | 0.112
9 | EBC-1 | 0.891 | 0.871 | 0.981 | 0.922 | 0.977 | 0.954 | 0.971 | 1.07 | 1 |  |  |  |  |  | 0.428 | 0.404 | 0.458 | 0.389
10 | IA-LM | 0.889 | 0.992 | 1.11 | 0.924 | 0.933 | 0.864 | 0.969 | 1.04 | 0.764 |  |  |  |  |  | 0.723 | 0.757 | 0.811 | 0.585
11 | LCLC-103H | 0.87 | 0.983 | 0.911 | 0.994 | 0.971 | 0.996 | 0.941 | 0.932 | 1.02 | 0.658 | 0.645 | 0.664 | 0.712 | 0.694 |  |  |  | 
12 | NCI-H358 | 0.892 | 0.979 | 0.841 |  | 0.873 | 0.831 | 0.954 | 1.07 | 0.34 | 0.146 | 0.146 | 0.11 |  | 0.129 |  |  |  | 
13 | NCI-H522 | 0.874 | 1.09 | 1.04 | 0.901 | 0.97 | 0.913 | 0.923 | 1.08 | 0.997 | 0.688 | 0.741 | 0.796 | 0.53 | 0.727 |  |  |  | 
14 | NCI-H650 | 0.849 | 0.863 | 0.851 | 0.833 | 0.967 | 0.953 | 0.88 | 1.01 | 0.909 | 0.94 | 0.938 | 0.96 | 0.923 | 1.06 |  |  |  | 
15 | NCI-H661 | 0.883 | 0.988 | 0.991 | 1.01 | 0.948 | 0.982 | 0.957 | 0.991 | 0.909 | 0.575 | 0.533 | 0.554 | 0.552 | 0.525 |  |  |  | 
16 | NCI-H1299 | 0.949 | 1.01 | 1.02 | 1.03 | 1.03 | 0.984 | 0.977 | 1.01 | 1 |  |  |  |  |  | 1.08 | 0.996 | 1.01 | 1.03
17 | NCI-H1563 | 1 | 0.889 | 0.989 | 0.646 | 0.949 | 0.971 | 0.966 | 1.07 | 0.983 |  |  |  |  |  |  |  |  | 
18 | NCI-H1623 | 0.845 | 1.12 | 0.905 | 0.977 | 1.09 | 0.934 | 1.29 | 1.02 | 1.02 |  |  |  |  |  |  |  |  | 
19 | NCI-H1703 | 0.847 | 0.527 | 0.256 | 0.264 | 0.316 | 0.808 | 0.807 | 0.767 | 0.444 |  |  |  |  |  | 1.07 | 1.29 | 0.938 | 0.319
20 | NCI-H2342 | 0.953 | 0.992 | 1.02 | 0.88 | 1.06 | 0.947 | 0.997 | 0.996 | 0.949 | 0.799 | 0.83 | 0.884 | 0.9 | 0.764 |  |  |  | 
21 | SW 900 | 0.823 | 1.12 | 0.745 | 0.803 | 0.994 | 0.71 | 0.828 | 0.869 | 0.729 | 0.769 | 0.943 | 0.843 | 0.899 | 0.803 |  |  |  | 
